In ChEMBL document CHEMBL5442219:

What was measured:
Conditions in all cases: Compound concentration 10 µM
[1] = biological target: T1, Alpha-2A adrenergic receptor (Homo sapiens) (UniProt P08913)
T1 sequence (whole entry): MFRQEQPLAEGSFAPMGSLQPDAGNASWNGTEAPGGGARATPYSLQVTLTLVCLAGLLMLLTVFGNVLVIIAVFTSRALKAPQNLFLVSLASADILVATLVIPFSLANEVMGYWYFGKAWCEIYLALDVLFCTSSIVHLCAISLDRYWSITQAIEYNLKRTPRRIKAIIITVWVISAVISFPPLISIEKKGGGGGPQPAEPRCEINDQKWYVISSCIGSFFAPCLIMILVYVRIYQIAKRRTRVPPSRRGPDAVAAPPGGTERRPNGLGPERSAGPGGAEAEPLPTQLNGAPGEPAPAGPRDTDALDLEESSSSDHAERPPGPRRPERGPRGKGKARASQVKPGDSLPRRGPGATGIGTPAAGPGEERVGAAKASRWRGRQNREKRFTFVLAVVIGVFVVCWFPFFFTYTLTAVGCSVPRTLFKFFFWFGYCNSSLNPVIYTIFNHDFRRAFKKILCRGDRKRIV

[2] = biological target: Beta-2 adrenergic receptor (Homo sapiens) (UniProt P07550)
[3] = biological target: T2, Muscarinic acetylcholine receptor M4 (Homo sapiens) (UniProt P08173)
T2 sequence (whole entry): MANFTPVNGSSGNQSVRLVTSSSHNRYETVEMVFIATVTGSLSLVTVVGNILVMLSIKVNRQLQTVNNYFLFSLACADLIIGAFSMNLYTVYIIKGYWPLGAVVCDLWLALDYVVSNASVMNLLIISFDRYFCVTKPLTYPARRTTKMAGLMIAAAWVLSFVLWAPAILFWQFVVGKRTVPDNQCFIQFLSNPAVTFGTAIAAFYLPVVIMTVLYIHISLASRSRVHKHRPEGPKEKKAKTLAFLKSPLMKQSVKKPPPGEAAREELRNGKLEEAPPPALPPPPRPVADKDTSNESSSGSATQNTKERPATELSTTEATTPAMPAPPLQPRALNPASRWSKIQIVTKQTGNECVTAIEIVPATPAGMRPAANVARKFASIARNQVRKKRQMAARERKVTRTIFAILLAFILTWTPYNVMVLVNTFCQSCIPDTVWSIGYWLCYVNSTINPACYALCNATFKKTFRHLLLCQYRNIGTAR

[4] = biological target: D(1A) dopamine receptor (Homo sapiens) (UniProt P21728)
[5] = biological target: D(2) dopamine receptor (Homo sapiens) (UniProt P14416)
Sequence of D(2) dopamine receptor (Homo sapiens) (P14416 whole entry): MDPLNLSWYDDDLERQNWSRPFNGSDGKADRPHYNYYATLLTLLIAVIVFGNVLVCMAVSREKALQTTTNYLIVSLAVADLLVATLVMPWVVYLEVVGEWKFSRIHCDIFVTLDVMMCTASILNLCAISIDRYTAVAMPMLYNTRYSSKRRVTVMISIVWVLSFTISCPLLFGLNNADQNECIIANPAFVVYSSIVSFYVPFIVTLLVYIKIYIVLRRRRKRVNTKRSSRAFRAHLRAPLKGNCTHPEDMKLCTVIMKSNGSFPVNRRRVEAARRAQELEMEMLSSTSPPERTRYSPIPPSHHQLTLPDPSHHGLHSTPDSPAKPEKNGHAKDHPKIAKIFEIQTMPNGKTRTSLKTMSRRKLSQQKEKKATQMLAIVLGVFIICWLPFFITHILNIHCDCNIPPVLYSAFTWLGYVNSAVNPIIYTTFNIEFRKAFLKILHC

[6] = biological target: D(3) dopamine receptor (Homo sapiens) (UniProt P35462)
[7] = biological target: T3, D(4) dopamine receptor (Homo sapiens) (UniProt P21917)
T3 sequence (whole entry): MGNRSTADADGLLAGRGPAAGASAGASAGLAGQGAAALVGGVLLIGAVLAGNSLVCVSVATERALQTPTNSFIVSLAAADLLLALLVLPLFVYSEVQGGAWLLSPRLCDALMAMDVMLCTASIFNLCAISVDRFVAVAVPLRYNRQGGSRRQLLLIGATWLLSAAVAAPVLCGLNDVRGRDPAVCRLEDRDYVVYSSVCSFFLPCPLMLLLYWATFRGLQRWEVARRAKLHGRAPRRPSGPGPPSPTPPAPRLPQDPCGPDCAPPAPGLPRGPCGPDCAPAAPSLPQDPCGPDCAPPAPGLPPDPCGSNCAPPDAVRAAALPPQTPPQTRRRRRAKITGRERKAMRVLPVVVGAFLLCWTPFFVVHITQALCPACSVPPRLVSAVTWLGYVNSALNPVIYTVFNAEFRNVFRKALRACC

[8] = biological target: Histamine H1 receptor (Homo sapiens) (UniProt P35367)
Sequence of Histamine H1 receptor (Homo sapiens) (P35367 whole entry): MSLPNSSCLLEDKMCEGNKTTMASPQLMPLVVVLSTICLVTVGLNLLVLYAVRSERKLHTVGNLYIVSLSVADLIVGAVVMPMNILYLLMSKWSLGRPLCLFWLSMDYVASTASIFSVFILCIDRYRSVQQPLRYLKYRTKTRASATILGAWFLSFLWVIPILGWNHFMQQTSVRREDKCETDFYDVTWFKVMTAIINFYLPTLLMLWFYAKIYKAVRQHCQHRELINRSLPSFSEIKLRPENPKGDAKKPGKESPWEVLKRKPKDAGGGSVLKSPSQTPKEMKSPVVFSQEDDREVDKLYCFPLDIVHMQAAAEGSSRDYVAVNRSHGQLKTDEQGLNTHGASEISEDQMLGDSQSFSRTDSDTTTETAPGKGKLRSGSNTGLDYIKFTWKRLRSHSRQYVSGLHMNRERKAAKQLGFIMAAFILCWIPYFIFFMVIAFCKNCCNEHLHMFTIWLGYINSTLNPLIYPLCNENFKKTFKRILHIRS

[9] = biological target: Histamine H3 receptor (Homo sapiens) (UniProt Q9Y5N1)
Sequence of Histamine H3 receptor (Homo sapiens) (Q9Y5N1 whole entry): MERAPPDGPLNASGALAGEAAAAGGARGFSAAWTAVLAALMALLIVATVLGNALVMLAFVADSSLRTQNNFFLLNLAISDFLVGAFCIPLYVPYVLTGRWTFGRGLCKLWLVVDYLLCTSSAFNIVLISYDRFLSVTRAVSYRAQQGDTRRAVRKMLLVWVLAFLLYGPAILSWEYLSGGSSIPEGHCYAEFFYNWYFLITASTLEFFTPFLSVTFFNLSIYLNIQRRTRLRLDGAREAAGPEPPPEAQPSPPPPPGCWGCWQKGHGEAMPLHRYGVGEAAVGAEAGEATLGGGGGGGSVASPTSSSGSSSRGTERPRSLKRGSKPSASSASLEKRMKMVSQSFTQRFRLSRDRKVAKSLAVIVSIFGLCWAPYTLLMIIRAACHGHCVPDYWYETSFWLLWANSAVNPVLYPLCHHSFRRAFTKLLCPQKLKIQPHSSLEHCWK

[10] = biological target: Histamine H4 receptor (Homo sapiens) (UniProt Q9H3N8)
Sequence of Histamine H4 receptor (Homo sapiens) (Q9H3N8 whole entry): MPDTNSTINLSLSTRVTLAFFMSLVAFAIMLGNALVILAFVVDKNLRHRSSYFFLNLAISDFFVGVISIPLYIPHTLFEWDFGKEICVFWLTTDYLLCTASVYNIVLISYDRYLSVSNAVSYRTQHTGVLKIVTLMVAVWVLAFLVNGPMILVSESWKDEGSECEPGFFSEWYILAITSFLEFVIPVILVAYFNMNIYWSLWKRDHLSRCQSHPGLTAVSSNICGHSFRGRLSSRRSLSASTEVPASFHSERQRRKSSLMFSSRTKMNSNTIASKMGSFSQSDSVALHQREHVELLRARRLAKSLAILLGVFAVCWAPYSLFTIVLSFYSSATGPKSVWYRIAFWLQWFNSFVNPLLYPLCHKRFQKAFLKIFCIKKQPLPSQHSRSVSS

[11] = biological target: T4, 5-hydroxytryptamine receptor 1A (Homo sapiens) (UniProt P08908)
T4 sequence (whole entry): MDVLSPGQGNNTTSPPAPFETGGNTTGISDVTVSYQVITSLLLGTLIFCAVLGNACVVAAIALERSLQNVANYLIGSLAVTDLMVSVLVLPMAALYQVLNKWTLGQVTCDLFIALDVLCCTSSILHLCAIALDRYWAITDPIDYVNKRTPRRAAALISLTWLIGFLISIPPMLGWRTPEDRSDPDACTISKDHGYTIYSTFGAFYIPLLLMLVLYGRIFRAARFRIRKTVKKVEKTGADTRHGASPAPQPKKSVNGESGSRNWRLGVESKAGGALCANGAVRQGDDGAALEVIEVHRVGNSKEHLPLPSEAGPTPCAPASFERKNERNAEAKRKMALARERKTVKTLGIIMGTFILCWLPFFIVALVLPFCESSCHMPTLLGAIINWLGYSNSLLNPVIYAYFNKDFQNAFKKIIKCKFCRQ

[12] = biological target: 5-hydroxytryptamine receptor 1B (Homo sapiens) (UniProt P28222)
Sequence of 5-hydroxytryptamine receptor 1B (Homo sapiens) (P28222 whole entry): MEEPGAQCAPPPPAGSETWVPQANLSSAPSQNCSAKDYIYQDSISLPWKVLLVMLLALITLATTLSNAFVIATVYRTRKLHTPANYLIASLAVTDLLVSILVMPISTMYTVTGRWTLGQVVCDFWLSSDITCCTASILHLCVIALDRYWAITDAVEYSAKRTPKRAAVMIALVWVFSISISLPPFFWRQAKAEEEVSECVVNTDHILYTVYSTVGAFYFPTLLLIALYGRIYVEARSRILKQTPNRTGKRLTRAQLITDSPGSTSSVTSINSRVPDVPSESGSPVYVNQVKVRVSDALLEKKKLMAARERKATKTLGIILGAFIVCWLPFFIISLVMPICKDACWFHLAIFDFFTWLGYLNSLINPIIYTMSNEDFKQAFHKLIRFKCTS

[13] = biological target: 5-hydroxytryptamine receptor 1E (Homo sapiens) (UniProt P28566)
Sequence of 5-hydroxytryptamine receptor 1E (Homo sapiens) (P28566 whole entry): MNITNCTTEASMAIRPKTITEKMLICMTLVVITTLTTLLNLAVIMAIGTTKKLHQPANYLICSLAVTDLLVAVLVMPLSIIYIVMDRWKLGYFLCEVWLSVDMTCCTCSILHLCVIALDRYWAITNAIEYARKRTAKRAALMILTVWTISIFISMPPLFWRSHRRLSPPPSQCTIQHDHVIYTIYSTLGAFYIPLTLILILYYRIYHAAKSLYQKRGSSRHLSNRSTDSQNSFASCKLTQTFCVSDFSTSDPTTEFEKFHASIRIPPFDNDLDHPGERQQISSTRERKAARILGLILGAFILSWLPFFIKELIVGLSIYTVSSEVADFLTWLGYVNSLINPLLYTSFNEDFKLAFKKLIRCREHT

[14] = biological target: 5-hydroxytryptamine receptor 2A (Homo sapiens) (UniProt P28223)
[15] = biological target: 5-hydroxytryptamine receptor 2B (Homo sapiens) (UniProt P41595)
[16] = biological target: T5, 5-hydroxytryptamine receptor 3A (Homo sapiens) (UniProt P46098)
T5 sequence (whole entry): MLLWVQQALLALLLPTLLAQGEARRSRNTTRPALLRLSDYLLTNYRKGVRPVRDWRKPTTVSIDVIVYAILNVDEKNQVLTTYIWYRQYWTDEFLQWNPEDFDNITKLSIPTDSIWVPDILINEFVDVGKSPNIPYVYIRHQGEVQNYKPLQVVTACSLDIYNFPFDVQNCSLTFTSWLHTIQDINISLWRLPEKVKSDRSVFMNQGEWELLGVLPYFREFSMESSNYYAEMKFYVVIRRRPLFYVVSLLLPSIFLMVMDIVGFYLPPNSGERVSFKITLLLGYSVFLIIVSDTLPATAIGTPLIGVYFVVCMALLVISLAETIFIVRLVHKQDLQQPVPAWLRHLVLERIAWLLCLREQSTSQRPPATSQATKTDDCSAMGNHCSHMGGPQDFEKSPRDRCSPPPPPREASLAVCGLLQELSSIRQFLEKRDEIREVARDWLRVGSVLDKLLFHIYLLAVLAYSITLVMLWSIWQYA

[17] = biological target: 5-hydroxytryptamine receptor 7 (Homo sapiens) (UniProt P34969)
Sequence of 5-hydroxytryptamine receptor 7 (Homo sapiens) (P34969 whole entry): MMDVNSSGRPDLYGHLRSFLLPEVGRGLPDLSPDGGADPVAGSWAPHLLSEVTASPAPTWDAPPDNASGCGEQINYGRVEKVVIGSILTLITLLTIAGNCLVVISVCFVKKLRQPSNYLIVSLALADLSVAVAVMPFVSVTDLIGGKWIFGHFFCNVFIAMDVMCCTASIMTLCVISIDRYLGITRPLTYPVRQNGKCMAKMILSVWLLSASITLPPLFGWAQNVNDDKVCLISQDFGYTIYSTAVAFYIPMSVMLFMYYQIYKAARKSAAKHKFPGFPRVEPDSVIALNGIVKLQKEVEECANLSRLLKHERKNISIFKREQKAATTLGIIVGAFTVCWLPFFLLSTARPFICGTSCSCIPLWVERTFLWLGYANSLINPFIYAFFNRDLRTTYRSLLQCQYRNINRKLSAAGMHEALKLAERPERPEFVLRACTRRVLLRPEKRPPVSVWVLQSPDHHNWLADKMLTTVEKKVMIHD

[18] = biological target: Kappa-type opioid receptor (Homo sapiens) (UniProt P41145)
Sequence of Kappa-type opioid receptor (Homo sapiens) (P41145 whole entry): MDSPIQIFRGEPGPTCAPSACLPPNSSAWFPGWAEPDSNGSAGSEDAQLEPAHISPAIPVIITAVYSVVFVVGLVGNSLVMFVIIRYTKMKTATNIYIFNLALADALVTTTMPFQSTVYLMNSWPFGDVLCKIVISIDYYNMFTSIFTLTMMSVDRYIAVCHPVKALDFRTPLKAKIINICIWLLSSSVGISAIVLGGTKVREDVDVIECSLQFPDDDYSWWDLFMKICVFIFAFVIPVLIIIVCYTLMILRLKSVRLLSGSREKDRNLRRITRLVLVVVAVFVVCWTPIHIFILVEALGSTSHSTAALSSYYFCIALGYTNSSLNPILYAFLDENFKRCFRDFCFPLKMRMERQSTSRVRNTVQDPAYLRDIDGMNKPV

[19] = biological target: Mu-type opioid receptor (Homo sapiens) (UniProt P35372)
Sequence of Mu-type opioid receptor (Homo sapiens) (P35372 whole entry): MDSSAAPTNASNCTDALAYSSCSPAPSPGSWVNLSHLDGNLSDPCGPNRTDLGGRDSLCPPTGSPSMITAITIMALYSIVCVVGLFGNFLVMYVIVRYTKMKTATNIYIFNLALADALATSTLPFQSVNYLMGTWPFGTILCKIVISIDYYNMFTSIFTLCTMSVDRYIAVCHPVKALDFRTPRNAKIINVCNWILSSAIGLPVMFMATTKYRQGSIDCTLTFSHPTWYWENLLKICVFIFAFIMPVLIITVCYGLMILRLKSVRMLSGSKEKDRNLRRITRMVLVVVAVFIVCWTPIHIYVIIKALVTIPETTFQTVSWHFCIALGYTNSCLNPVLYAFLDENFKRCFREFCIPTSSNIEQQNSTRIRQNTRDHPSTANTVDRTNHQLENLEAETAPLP

[20] = biological target: Sigma non-opioid intracellular receptor 1 (Homo sapiens) (UniProt Q99720)
Sequence of Sigma non-opioid intracellular receptor 1 (Homo sapiens) (Q99720 whole entry): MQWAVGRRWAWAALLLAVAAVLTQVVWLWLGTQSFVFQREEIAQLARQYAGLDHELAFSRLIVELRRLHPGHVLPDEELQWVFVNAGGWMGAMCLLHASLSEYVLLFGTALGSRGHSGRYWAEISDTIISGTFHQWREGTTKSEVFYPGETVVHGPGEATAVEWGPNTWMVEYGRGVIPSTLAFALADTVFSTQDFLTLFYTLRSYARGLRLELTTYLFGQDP

[21] = biological target: Sodium-dependent dopamine transporter (Homo sapiens) (UniProt Q01959)
Sequence of Sodium-dependent dopamine transporter (Homo sapiens) (Q01959 whole entry): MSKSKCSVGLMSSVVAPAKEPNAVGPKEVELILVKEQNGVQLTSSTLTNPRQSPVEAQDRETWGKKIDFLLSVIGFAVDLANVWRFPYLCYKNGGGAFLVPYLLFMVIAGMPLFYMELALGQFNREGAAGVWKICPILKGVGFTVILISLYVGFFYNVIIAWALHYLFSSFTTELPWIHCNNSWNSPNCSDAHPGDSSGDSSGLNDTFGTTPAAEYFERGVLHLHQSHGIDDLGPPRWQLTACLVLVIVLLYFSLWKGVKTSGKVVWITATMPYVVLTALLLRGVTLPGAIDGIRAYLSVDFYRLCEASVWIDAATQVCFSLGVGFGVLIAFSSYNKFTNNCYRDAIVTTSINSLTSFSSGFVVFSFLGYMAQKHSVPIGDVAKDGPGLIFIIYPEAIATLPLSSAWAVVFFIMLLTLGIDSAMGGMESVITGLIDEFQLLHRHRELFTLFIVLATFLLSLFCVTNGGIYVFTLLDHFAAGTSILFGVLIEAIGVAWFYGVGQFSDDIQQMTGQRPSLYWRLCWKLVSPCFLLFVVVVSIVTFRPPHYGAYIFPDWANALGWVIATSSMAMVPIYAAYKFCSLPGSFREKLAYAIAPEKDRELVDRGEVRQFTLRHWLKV

[22] = biological target: Sodium-dependent serotonin transporter (Homo sapiens) (UniProt P31645)
[23] = biological target: Sigma intracellular receptor 2 (Homo sapiens) (UniProt Q5BJF2)
Sequence of Sigma intracellular receptor 2 (Homo sapiens) (Q5BJF2 whole entry): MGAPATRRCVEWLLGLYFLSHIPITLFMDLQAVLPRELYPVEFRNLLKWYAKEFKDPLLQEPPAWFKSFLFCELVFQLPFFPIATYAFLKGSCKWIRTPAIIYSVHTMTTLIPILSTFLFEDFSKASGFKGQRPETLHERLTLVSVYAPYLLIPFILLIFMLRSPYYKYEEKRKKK

[24] = biological target: Translocator protein (Homo sapiens) (UniProt P30536)
[25] = biological target: Beta-3 adrenergic receptor (Homo sapiens) (UniProt P13945)
[26] = biological target: Histamine H2 receptor (Homo sapiens) (UniProt P25021)
[27] = biological target: T6, Alpha-2B adrenergic receptor (Homo sapiens) (UniProt P18089)
T6 sequence (whole entry): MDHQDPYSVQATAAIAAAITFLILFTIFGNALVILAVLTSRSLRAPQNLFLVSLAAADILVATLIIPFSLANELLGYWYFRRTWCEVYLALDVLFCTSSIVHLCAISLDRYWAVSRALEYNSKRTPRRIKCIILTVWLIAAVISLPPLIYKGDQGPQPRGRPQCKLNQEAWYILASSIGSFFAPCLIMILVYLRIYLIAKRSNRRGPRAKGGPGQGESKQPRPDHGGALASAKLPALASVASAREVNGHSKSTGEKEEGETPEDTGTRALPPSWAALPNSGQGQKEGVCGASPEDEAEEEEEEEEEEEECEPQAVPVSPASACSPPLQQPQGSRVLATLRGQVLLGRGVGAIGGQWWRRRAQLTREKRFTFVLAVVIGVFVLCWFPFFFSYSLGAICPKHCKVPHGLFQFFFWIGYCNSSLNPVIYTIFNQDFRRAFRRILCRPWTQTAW

[28] = biological target: T7, Alpha-2C adrenergic receptor (Homo sapiens) (UniProt P18825)
T7 sequence (whole entry): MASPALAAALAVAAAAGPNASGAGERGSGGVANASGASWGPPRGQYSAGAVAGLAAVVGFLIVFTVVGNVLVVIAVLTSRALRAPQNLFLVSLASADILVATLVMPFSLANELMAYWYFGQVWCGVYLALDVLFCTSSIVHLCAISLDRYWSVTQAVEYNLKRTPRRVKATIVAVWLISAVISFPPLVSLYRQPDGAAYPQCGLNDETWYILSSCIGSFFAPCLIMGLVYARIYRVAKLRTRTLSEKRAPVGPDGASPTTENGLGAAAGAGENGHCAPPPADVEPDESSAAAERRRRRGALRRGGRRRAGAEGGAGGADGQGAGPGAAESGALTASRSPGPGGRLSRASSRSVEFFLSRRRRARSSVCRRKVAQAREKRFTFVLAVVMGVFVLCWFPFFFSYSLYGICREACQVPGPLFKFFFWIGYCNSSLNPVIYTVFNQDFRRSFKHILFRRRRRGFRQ

[29] = biological target: T8, Muscarinic acetylcholine receptor M1 (Homo sapiens) (UniProt P11229)
T8 sequence (whole entry): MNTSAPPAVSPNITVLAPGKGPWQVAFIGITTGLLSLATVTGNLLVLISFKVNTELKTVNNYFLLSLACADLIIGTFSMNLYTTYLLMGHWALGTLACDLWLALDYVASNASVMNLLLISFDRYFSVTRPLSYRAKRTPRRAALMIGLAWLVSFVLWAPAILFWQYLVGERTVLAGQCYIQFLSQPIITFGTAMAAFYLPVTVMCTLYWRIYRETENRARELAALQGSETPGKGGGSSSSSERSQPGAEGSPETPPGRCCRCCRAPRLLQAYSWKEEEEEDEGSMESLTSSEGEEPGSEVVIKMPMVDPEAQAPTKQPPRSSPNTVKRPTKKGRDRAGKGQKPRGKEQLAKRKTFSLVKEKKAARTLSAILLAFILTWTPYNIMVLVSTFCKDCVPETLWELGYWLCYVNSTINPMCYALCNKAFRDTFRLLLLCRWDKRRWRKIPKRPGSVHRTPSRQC

[30] = biological target: 5-hydroxytryptamine receptor 1D (Homo sapiens) (UniProt P28221)

Compound	inhibition [1]	inhibition [2]	inhibition [5]	inhibition [7]	inhibition [8]	inhibition [9]	inhibition [10]	inhibition [12]	inhibition [13]	inhibition [15]	inhibition [17]	inhibition [18]	inhibition [19]	inhibition [20]	inhibition [21]	inhibition [23]	inhibition [24]	other results
Cc1c(C(=O)NC2CCCCC2)sc2nc3ccc(N)cc3n12	-6.44%	5.51%	-1.44%	38.1%	11.7%	4.62%	1.51%	27.8%	5.97%	53.3%	6.55%	17.5%	8.54%	62.8%	17.7%	10.3%	-2.67%	inhibition [3]: -5.41%; inhibition [4]: 7.6%; inhibition [6]: 36.7%; inhibition [11]: 33.1%; inhibition [14]: 10.5%; inhibition [16]: -6.74%; inhibition [22]: 7.26%; inhibition [25]: -9.6%; inhibition [26]: 21.4%
O=C(O)c1n[nH]c2c1C[C@H]1C[C@@H]21	8.74%	3.75%	-9.71%	-4.86%	-7.37%	-7.4%	10%	13%	5.8%	15.1%	-5.09%	-6.22%	-4.24%	14.3%	1.37%	11.9%	4.46%	inhibition [27]: 3.24%; inhibition [28]: 1.98%; inhibition [29]: -7.24%; inhibition [30]: 17.2%
